Measurements as given in paper PMC3498832, “Mechanistic and structural basis for inhibition of thymidylate synthase ThyX” (Open Biology, 2012).
Where two headings read alike, the source gives them in different places. Marks after values point to notes of the source that are not given here.

Experiments:
[1] = system: E. coli FE010 (ΔthyA::PBCV-1 thyX tdk+); assay: Growth inhibition (CFU) of genetically modified E. coli dependent on thyX
Protocol: (§1) Escherichia coli MG1655 (wild-type, thyA^+ tdk^+) and FE010 [ΔthyA::PBCV-1 thyX tdk^+] [26] were grown at 37°C either in thymidine-containing LB medium or thymidine-free M9 minimal medium supplemented with 0.1 mM CaCl2, 2 mM MgSO4 and 0.2 per cent casamino acids (Difco). IPTG-induced overexpression of target protein PBCV-1 ThyX was used to test titration of inhibitor in the bacterial cell. When necessary, thymidine (40 µg ml^−1) and kanamycin (40 µg ml^−1) were added to the growth medium. The cells were then harvested and washed two times with M9 medium to remove the remaining thymidine. The cells were diluted to an OD600 of approximately 0.1 using M9 medium and 1 ml of cell suspension was transferred to 24-well microplates (Nunc). Compounds were dissolved in DMSO and were added at indicated concentrations. No cells and DMSO-only controls were included for each medium composition. The plates were closed with plastic lids and incubated at 37°C with shaking at 160 r.p.m. After 24 h of incubation, 100 µl of 10-fold serial dilutions were plated onto LB plates or LB plates supplemented with kanamycin (40 µg ml^−1) when appropriate. Colonies were enumerated after overnight incubation at 37°C. Colony-forming units (CFU) per millilitre for each growth condition were determined from three independent experiments.

[2] = target: T1, human thymidylate synthase (Homo sapiens, UniProt P04818); assay: Human thymidylate synthase activity; type: biochemical; conditions: data not shown
T1 construct: made in house; host or cells: E. coli BL21

[3] = system: C. trachomatis ThyX; assay: ThyX activity with isolated C. trachomatis ThyX; type: biochemical, Chlamydia trachomatis
[4] = system: E. coli FE010 carrying plasmid overexpressing PBCV-1 thyX; assay: Growth inhibition with IPTG-induced overexpression of PBCV-1 ThyX (selectivity factor, ratio of CFUs)
Protocol: Escherichia coli MG1655 (wild-type, thyA^+ tdk^+) and FE010 [ΔthyA::PBCV-1 thyX tdk^+] [26] were grown at 37°C either in thymidine-containing LB medium or thymidine-free M9 minimal medium supplemented with 0.1 mM CaCl2, 2 mM MgSO4 and 0.2 per cent casamino acids (Difco). IPTG-induced overexpression of target protein PBCV-1 ThyX was used to test titration of inhibitor in the bacterial cell. When necessary, thymidine (40 µg ml^−1) and kanamycin (40 µg ml^−1) were added to the growth medium. The cells were then harvested and washed two times with M9 medium to remove the remaining thymidine. The cells were diluted to an OD600 of approximately 0.1 using M9 medium and 1 ml of cell suspension was transferred to 24-well microplates (Nunc). Compounds were dissolved in DMSO and were added at indicated concentrations. No cells and DMSO-only controls were included for each medium composition. The plates were closed with plastic lids and incubated at 37°C with shaking at 160 r.p.m. […] Colony-forming units (CFU) per millilitre for each growth condition were determined from three independent experiments.
The values reported are means of three individual experiments. Hundred per cent refers to cell viability, measured as CFU, in the absence of inhibitor. […]

[5] = target: T2, M. tuberculosis ThyX (Mycobacterium tuberculosis, UniProt P9WG57); type: biochemical
T2 construct: made in house; host or cells: E. coli BL21

[6] = target: T3, H. pylori ThyX (Helicobacter pylori, UniProt O26061); type: biochemical
T3 construct: made in house; host or cells: E. coli BL21
T3 sequence (O26061 1-208): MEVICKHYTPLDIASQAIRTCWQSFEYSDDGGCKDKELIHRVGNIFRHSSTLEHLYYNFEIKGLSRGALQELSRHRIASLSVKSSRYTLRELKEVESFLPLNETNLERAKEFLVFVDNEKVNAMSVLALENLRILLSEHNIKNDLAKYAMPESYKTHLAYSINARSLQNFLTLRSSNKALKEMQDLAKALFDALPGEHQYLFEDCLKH

[7] = system: E. coli MG1655 (wild-type, thyA+ tdk+); assay: Growth inhibition (CFU) of isogenic wild-type E. coli; conditions: Escherichia coli, MG1655, 24 h, read-out: growth inhibition
Protocol: as §1

[8] = target: T4, PBCV-1 ThyX (Paramecium bursaria Chlorella virus 1, UniProt O41156); assay: 'deprotonation' activity (tritium release assay from [5-3H]dUMP); type: biochemical, Paramecium bursaria chlorella virus (PBCV-1); conditions: compound 20 µM
T4 construct: made in house; host or cells: E. coli BL21

[9] = target: T4, PBCV-1 ThyX; assay: NADPH oxidation assay of ThyX activity (decrease of A340); type: biochemical, Paramecium bursaria chlorella virus (PBCV-1)
[10] = target: T4, PBCV-1 ThyX; assay: C8-C1 induced quenching of FAD fluorescence; type: binding; conditions: authors' unpublished data
Protocol: We stress that the total PBCV-1 ThyX concentration used in these assays was 10 μM.

[11] = target: T4, PBCV-1 ThyX; assay: ThyX assay under anaerobic conditions (NADPH oxidation at 340 nm, FAD reduction at 450 nm); type: biochemical, Paramecium bursaria chlorella virus (PBCV-1); conditions: 100 μM dUMP or inhibitor, 400 μM NADPH, 77 μM ThyX bound FAD
Protocol: ThyX assays (100 μl) under anaerobic conditions contained 77 μM of PBCV-1 ThyX bound FAD in 300 mM NaCl, 1 mM MgCl2, 10 per cent glycerol (m/v) and 50 mM HEPES, pH 8.0. Samples were made anaerobic by repeatedly degassing with argon. Traces of oxygen were removed using the glucose oxidase system (60 units of glucose oxidase and catalase in the presence of 10 mM glucose). Where indicated, 100 μM dUMP, 100 μM inhibitor C8-C1 and 400 μM NADPH were added using an air-tight syringe. NADPH oxidation and FAD reduction were followed spectroscopically (optical path length 1 mm) at 340 and 450 nm, respectively.

[12] = system: Thermotoga maritima ThyX; conditions: T. maritima ThyX; no reference given; cited from earlier work
[13] = target: T4, PBCV-1 ThyX; parameters: method as in PMID 15471872; conditions: cited from earlier work
[14] = 10 µM total PBCV-1 ThyX, 5 µM dUMP, 200 µM NADPH, read-out: IC50 (µM) NADPH oxidation

T4 sequence (O41156 whole entry): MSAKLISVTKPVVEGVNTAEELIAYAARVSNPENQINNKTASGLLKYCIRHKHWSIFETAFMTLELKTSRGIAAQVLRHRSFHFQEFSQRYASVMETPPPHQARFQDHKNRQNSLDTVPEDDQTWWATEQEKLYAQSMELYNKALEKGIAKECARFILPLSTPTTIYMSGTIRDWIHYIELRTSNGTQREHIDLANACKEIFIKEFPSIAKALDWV
T1 sequence (P04818 whole entry): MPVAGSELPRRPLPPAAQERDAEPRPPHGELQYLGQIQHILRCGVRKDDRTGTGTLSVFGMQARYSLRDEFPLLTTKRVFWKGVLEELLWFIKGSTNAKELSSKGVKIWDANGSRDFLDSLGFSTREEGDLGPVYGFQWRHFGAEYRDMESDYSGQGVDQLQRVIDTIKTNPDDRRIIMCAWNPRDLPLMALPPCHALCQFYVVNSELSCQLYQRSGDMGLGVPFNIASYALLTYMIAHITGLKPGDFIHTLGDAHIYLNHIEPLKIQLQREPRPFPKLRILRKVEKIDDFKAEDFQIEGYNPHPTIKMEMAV
T2 sequence (P9WG57 whole entry): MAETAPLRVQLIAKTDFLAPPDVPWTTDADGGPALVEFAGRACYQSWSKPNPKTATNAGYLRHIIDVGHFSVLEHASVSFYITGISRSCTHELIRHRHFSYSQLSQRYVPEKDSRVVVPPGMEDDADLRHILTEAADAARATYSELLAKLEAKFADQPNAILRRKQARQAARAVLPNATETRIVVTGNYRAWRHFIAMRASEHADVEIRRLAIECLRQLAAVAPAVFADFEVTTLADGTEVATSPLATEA

For `O=C1C=C(Br)C(=O)c2c(O)cccc21` [2E04, 2-bromo-8-hydroxy-1,4-naphthoquinone], the “growth inhibition after addition of thymidine to the growth medium” value ([1]; 1.5 μg ml−1, thymidine added) was “reversed”, the inhibition at 1.5 µg/mL ([1]; Escherichia coli, 24 h, read-out: inhibition of bacterial growth) was ~80% and the “inhibitory effect on human thymidylate synthase” value [2] was “No inhibitory effect”. The “effect on ThyX activity” value [3] was “specifically decreased the activity”, the “effect of ThyX overexpression on growth inhibition (selectivity factor)” value ([4]; 1.5 μg ml−1, with vs without IPTG induction) was “less-potent growth inhibition” and the “effect on ThyX activity” value [5] was “specifically decreased the activity”. The “effect on ThyX activity” value [6] was “specifically decreased the activity” and the inhibition at 1.5 µg/mL [7] was 10 to 15%.

For `O=C(O)c1ccccc1NC1=CC(=O)c2c(O)cccc2C1=O` [B3-C1, 2-(5-hydroxy-1,4-dioxo-1,4-dihydronaphthalen-2-ylamino)benzoic acid], the inhibition at 20 µM [8] was 12 ± 6% and the IC50 [9, 14] was > 10 µM.

With `COc1ccc(CC2=C(O)C(=O)c3ccccc3C2=O)cc1` [C8-C1, 2-hydroxy-3-(4-methoxybenzyl)-1,4-naphthoquinone] the Kd [10] was ~400 nM, the inhibition at 20 µM [8] was 78 ± 4% and the IC50 [9] was 4.5 µM. For the same compound, the “inhibition modality with respect to NADPH” value ([9]; IC50 plotted against NADPH concentration) was “tight-binding uncompetitive inhibition”, the “inhibition modality with respect to dUMP” value ([9]; IC50 plotted against dUMP concentration) was “tight-binding competitive inhibitor” and the Ki ([9]; Ki after correcting for total enzyme and dUMP concentration, competitive with respect to dUMP) was 460 nM. For the same compound, the Ki ([9]; apparent Ki (Morrison equation), with respect to dUMP, uncorrected) was 1500 nM, the “Ki (uncompetitive, NADPH)” value ([9]; with respect to NADPH) was 4.45 µM and the “effect of ThyX overexpression on growth inhibition (selectivity factor)” value ([4]; 50 μg ml−1, with vs without IPTG induction) was “less-potent growth inhibition”. For the same compound, the “FAD reduction (nmol)” value [11] was 0^b nmol and the “NADPH oxidation” value [11] was 0 nmol.

Work on `O=C(CC1=C(O)C(=O)c2ccccc2C1=O)c1ccccc1` [E11-C1, 2-hydroxy-3-(2-oxo-2-phenylethyl)-1,4-naphthoquinone] yielded an inhibition at 20 µM [8] of 36 ± 5% and an IC50 [9, 14] of 11 µM.

Work on `Cc1ccc(C(=O)CC2=C(O)C(=O)c3ccccc3C2=O)cc1` [F3-C1, 2-hydroxy-3-(2-oxo-2-p-tolylethyl)-1,4-naphthoquinone] yielded an inhibition at 20 µM [8] of 38 ± 7% and an IC50 [9, 14] of 7 µM.

`COc1ccc(C(=O)CC2=C(O)C(=O)c3ccccc3C2=O)cc1` [G3-C1, 2-hydroxy-3-(2-(4-methoxyphenyl)-2-oxoethyl)-1,4-naphthoquinone] gave an inhibition at 20 µM [8] of 22 ± 7% and an IC50 [9, 14] of 10 µM.

`O=C(CC1=C(O)C(=O)c2ccccc2C1=O)c1cccs1` [H3-C1, 2-hydroxy-3-(2-oxo-2-(thiophen-2-yl)ethyl)-1,4-naphthoquinone] showed an inhibition at 20 µM [8] of 38 ± 3% and an IC50 [9, 14] of 7 µM.

In the case of `O=c1ccn([C@H]2C[C@H](O)[C@@H](COP(=O)(O)O)O2)c(=O)[nH]1` [dUMP, 2′-deoxyuridine-5′-monophosphate, reference compound], the “activating factor of NAD(P)H oxidase activity” value [12] is listed as 5–7, the “activating factor of NAD(P)H oxidase activity” value [13] is listed as > 20 and the “FAD reduction (nmol)” value [11] is listed as 8.9^a nmol. The “NADPH oxidation” value [11] was 11.3 nmol.
